Test results reported in US11629143B2, “HipK4 inhibitors and uses thereof” (Vibliome Therapeutics, LLC, priority 2020, dated 2023).

Experiments:
EPH-A8 = target: T1, EPH-A8 (Homo sapiens, UniProt P29322); test: Kinase panel (mobility shift); assay type: biochemical
T1 sequence (P29322 28-1005): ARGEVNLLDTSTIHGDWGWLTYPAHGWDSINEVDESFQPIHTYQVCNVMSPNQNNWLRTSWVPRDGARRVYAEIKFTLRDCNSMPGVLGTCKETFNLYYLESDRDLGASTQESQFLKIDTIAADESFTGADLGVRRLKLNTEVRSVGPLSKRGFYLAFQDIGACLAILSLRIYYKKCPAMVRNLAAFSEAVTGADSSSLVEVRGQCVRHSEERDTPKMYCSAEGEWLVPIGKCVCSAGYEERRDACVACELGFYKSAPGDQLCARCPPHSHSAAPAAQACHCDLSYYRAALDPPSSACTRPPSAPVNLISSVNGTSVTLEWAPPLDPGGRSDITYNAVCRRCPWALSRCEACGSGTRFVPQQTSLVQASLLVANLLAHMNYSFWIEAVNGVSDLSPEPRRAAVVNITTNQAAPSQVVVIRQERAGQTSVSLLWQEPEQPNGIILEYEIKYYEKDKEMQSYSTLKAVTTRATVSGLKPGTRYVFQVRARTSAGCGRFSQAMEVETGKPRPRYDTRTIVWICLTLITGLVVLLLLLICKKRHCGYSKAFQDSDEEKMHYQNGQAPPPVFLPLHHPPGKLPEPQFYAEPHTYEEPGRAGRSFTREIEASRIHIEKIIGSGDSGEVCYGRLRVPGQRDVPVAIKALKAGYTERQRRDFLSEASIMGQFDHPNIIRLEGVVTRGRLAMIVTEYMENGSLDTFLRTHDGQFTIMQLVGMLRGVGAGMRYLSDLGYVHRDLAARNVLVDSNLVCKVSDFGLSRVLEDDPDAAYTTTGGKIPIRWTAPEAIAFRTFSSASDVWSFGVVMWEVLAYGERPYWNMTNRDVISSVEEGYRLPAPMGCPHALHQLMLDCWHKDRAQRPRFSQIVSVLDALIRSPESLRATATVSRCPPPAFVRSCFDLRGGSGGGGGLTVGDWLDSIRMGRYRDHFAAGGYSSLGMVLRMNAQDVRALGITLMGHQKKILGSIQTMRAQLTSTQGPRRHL
Outline: (§1)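 Microfluidic mobility-shift readout: product and substrate peaks are resolved by charge, and their fluorescence is compared to give enzyme activity. Enzyme, fluorescent substrate and test compound are reacted, then terminated before chip loading. Values are binned at 5 um: A 95% or greater, B 90%-94%, C 80%-89%.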

EPH-A6 = target: T2, EPH-A6 (Homo sapiens, UniProt Q9UF33); test: Kinase panel (mobility shift); assay type: biochemical
T2 sequence (Q9UF33 23-1036): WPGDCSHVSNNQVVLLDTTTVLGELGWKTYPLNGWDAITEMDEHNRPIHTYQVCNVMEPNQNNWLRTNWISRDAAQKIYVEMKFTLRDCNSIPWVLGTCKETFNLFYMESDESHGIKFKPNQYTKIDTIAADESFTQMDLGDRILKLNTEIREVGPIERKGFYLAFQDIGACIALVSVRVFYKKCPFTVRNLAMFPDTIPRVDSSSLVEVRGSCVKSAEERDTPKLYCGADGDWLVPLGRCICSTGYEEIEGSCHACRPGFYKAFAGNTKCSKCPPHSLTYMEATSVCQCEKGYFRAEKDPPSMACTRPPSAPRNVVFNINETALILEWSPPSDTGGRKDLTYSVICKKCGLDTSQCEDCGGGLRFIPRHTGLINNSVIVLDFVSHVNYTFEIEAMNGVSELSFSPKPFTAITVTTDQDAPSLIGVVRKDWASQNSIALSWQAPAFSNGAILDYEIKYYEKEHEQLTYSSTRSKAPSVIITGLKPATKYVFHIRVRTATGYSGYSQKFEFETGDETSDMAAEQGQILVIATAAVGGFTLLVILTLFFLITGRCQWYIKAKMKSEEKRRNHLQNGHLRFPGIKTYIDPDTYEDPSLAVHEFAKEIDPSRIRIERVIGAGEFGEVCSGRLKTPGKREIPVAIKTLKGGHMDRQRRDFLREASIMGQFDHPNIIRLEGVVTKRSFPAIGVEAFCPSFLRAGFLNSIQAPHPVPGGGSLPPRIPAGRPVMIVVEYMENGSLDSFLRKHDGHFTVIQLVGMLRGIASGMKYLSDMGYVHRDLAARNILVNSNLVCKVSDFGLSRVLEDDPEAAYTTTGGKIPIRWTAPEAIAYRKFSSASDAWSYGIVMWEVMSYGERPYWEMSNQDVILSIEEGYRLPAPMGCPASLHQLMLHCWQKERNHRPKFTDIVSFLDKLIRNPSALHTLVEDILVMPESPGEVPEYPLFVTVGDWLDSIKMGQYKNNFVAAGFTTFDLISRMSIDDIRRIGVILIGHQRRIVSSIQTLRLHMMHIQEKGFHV
Outline: as §1

| Structure (SMILES) | inhibition at 5 µM (EPH-A8) [%] | inhibition at 5 µM (EPH-A6) [%] |
| --- | --- | --- |
| CSc1nc(C(=O)Nc2ccc(Oc3ccnc(N)c3Cl)c(F)c2)c(-c2ccc(F)cc2)o1 [Compound 1] | < 50 | < 50 |
| CSc1nc(C(=O)Nc2ccc(Oc3cc4cnn(C)c4cc3Br)c(F)c2)c(-c2ccc(F)cc2)o1 [Compound 2] | 50 to 79 | 50 to 79 |
| CNC(=O)c1cc(Oc2ccc(NC(=O)c3nc(SC)oc3-c3ccc(F)cc3Cl)cc2)ccn1 [Compound 3] | 50 to 79 | 50 to 79 |
| CNC(=O)c1cc(Oc2ccc(NC(=O)c3nc(SC)oc3-c3ccc(F)c(F)c3)cc2)ccn1 [Compound 4] | 50 to 79 | 50 to 79 |
| CNC(=O)c1cc(Oc2ccc(NC(=O)c3nc(SC)oc3-c3ccc(Cl)s3)cc2)ccn1 [Compound 5] | 50 to 79 | 50 to 79 |
| CNC(=O)c1cc(Oc2ccc(NC(=O)c3nc(SC)oc3-c3ccc(F)cc3F)cc2)ccn1 [Compound 6] | 80 to 89 | ≥ 95 |
| CNC(=O)c1cc(Oc2ccc(NC(=O)c3nc(SC)oc3-c3ccc(OC)cc3)cc2)ccn1 [Compound 7] | < 50 | < 50 |
| CSc1nc(C(=O)Nc2ccc(Oc3ccnc(-c4cnn(C)c4)c3)c(F)c2)c(-c2ccc(F)cc2)o1 [Compound 11] | 80 to 89 | ≥ 95 |
| CNC(=O)c1cc(Oc2ccc(NC(=O)c3nc(SC)oc3-c3ccc(F)cc3F)cc2F)ccn1 [Compound 12] | 50 to 79 | 80 to 89 |
| CNC(=O)c1cc(Oc2ccc(NC(=O)c3nc(S(C)(=O)=O)sc3-c3ccc(F)cc3)cc2F)ccn1 [Compound 13] | 80 to 89 | ≥ 95 |
| CNC(=O)c1cc(Oc2ccc(NC(=O)c3nc(NC)oc3-c3ccc(F)cc3)cc2F)ccn1 [Compound 14] | 50 to 79 | 80 to 89 |
| CNC(=O)c1cc(Oc2ccc(NC(=O)c3nc(OC)oc3-c3ccc(F)cc3)cc2F)ccn1 [Compound 15] | 80 to 89 | 90 to 94 |
| CNC(=O)c1cc(Oc2ccc(NC(=O)c3nc(SC)oc3-c3ccc(F)s3)cc2F)ccn1 [Compound 16] | < 50 | 50 to 79 |
| CNC(=O)c1cc(Oc2ccc(NC(=O)c3nc(NC)oc3-c3ccc(F)s3)cc2F)ccn1 [Compound 17] | < 50 | < 50 |
| CNC(=O)c1cc(Oc2c(F)cc(NC(=O)c3nc(NC)sc3-c3ccc(F)cc3)cc2F)ccn1 [Compound 19] | 50 to 79 | 80 to 89 |
| CNC(=O)c1cc(Oc2ccc(NC(=O)c3nc(NC)sc3-c3ccc(F)cc3F)cc2F)ccn1 [Compound 21] | 50 to 79 | 50 to 79 |

The remaining lines, values ahead:

| inhibition at 5 µM (EPH-A8) [%] | inhibition at 5 µM (EPH-A6) [%] | Structure (SMILES) |
| --- | --- | --- |
| 50 to 79 | 80 to 89 | CNC(=O)c1cc(Oc2ccc(NC(=O)c3nc(NC)sc3-c3ccc(F)cc3C)cc2F)ccn1 [Compound 23] |
| 50 to 79 | 50 to 79 | CNC(=O)c1cc(Oc2ccc(NC(=O)c3nc(OC)oc3-c3ccc(F)c(F)c3)cc2F)ccn1 [Compound 24] |
| < 50 | 50 to 79 | CNC(=O)c1cc(Oc2ccc(NC(=O)c3nc(OC)oc3-c3ccc(F)s3)cc2F)ccn1 [Compound 25] |
| 80 to 89 | 90 to 94 | CNC(=O)c1cc(Oc2ccc(NC(=O)c3nc(C4CC4)oc3-c3ccc(F)cc3)cc2F)ccn1 [Compound 26] |
| < 50 | < 50 | CSc1nc(C(=O)Nc2ccc(Oc3ccnc(C(=O)NC4CNC4)c3)c(F)c2)c(-c2ccc(F)s2)o1 [Compound 27] |
| < 50 | < 50 | CSc1nc(C(=O)Nc2ccc(Oc3ccnc(C(=O)NC4COC4)c3)c(F)c2)c(-c2ccc(F)s2)o1 [Compound 28] |
| 50 to 79 | 80 to 89 | CSc1nc(C(=O)Nc2ccc(Oc3ccnc(C(=O)NC4CNC4)c3)c(F)c2)c(-c2ccc(F)cc2)o1 [Compound 29] |
| 90 to 94 | ≥ 95 | CNC(=O)c1cc(Oc2ccc(NC(=O)c3nc(COC)oc3-c3ccc(F)cc3)cc2F)ccn1 [Compound 30] |
| < 50 | 80 to 89 | CSc1nc(C(=O)Nc2ccc(Oc3ccnc(C(=O)NC4COC4)c3)c(F)c2)c(-c2ccc(F)cc2)o1 [Compound 31] |
| 80 to 89 | 90 to 94 | CNC(=O)c1cc(Oc2ccc(NC(=O)c3nc(OC4CC4)oc3-c3ccc(F)cc3)cc2F)ccn1 [Compound 32] |
| < 50 | 50 to 79 | [2H]C([2H])([2H])NC(=O)c1cc(Oc2ccc(NC(=O)c3nc(SC)oc3-c3ccc(F)c(F)c3)cc2F)ccn1 [Compound 33] |
| 80 to 89 | 90 to 94 | CNC(=O)c1cc(Oc2ccc(NC(=O)c3nc(SC(C)C)oc3-c3ccc(F)cc3)cc2F)ccn1 [Compound 34] |
| < 50 | 50 to 79 | [2H]C([2H])([2H])NC(=O)c1cc(Oc2ccc(NC(=O)c3nc(SC)oc3-c3ccc(F)s3)cc2F)ccn1 [Compound 35] |
| < 50 | 50 to 79 | CNC(=O)c1ccc(Oc2ccc(NC(=O)c3nc(Cl)oc3-c3ccc(F)cc3)c(F)c2)cn1 [Compound 36] |
| < 50 | < 50 | CSc1nc(C(=O)Nc2ccc(Oc3ccnc(C(=O)NC4COC4)c3)c(F)c2)c(-c2ccc(F)c(F)c2)o1 [Compound 37] |
| 50 to 79 | 80 to 89 | CNC(=O)c1cc(Oc2ccc(NC(=O)c3nc(OCC(F)(F)F)oc3-c3ccc(F)cc3)cc2F)ccn1 [Compound 38] |
| < 50 | 80 to 89 | COc1nc(C(=O)Nc2ccc(Oc3ccnc(C(=O)NC4COC4)c3)c(F)c2)c(-c2ccc(F)cc2)o1 [Compound 39] |
| < 50 | < 50 | CSc1nc(C(=O)Nc2ccc(Oc3ccnc(C(=O)NCC(F)(F)F)c3)c(F)c2)c(-c2ccc(F)cc2)o1 [Compound 40] |
| 50 to 79 | 80 to 89 | CSc1nc(C(=O)Nc2ccc(Oc3ccnc(C(=O)NCCN(C)C)c3)c(F)c2)c(-c2ccc(F)cc2)o1 [Compound 41] |
| < 50 | 50 to 79 | CSc1nc(C(=O)Nc2ccc(Oc3ccnc(C(=O)NC4CCN(C)CC4)c3)c(F)c2)c(-c2ccc(F)cc2)o1 [Compound 42] |
| < 50 | < 50 | COc1nc(C(=O)Nc2ccc(Oc3ccnc(C(=O)NCC(F)(F)F)c3)c(F)c2)c(-c2ccc(F)cc2)o1 [Compound 43] |
